The target of this experiment is T1, Angiotensin-converting enzymes from porcine kidneys (EC 3.4.15.1) (Sus scrofa, UniProt F1RRW5).
T1 construct: gene ACE; native enzyme from porcine kidney (Sigma), lyophilized
T1 sequence (F1RRW5 34-1309): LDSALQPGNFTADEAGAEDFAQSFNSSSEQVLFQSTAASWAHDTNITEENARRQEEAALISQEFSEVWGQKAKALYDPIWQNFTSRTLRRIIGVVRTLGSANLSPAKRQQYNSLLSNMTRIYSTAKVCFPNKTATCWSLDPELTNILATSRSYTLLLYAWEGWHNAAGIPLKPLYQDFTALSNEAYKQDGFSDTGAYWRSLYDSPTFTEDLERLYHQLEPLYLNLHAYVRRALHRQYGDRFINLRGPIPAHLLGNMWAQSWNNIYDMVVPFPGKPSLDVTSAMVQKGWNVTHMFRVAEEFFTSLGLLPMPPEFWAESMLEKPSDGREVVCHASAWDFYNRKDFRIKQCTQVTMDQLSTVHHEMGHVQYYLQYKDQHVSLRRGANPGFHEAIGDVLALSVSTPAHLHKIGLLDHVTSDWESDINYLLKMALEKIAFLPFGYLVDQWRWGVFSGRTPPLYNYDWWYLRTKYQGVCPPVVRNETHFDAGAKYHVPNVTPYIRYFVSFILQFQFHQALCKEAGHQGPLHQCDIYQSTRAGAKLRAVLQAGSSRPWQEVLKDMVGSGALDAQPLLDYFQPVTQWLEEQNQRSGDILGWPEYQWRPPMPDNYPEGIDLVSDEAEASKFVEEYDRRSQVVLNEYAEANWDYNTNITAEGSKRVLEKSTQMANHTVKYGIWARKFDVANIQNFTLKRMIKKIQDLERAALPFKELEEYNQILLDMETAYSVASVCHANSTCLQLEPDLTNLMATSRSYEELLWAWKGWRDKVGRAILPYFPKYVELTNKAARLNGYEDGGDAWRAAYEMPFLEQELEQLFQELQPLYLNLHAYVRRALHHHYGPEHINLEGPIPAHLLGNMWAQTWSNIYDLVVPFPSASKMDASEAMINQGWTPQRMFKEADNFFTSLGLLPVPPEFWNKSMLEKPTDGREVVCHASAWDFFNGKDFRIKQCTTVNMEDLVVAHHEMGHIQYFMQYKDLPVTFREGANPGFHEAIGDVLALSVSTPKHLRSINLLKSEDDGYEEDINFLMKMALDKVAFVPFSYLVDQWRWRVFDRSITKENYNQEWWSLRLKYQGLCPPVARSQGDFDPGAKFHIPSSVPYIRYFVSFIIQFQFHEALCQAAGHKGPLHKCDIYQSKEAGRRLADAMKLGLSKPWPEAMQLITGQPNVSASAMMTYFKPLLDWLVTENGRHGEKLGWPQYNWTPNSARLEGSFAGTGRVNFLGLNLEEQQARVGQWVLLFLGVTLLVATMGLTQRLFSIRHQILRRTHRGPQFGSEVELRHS
Put plainly: microplate fluorometric assay, OPA detection of His-Leu. The class given is biochemical. The settings on record: read-out: IC50 (μg mL^-1) (converted).

On to `O=c1c(O)c(-c2ccc(O)c(O)c2)oc2cc(O)cc(O)c12` [quercetin], for which the IC50 is 129 µM.

What is called IC50 is the concentration that inhibits the measured activity by half.
